Literature values in patent publication US20090088367A1, “Treatment of Insulin Resistance/Metabolic Syndrome to Alleviate the Risks of Dementia” (Burnham Institute For Medical Research, priority 2004, published 2009).

Columns and labels:
[1] = tested on: neurodegeneration induced by beta-amyloid(1-40); settings: Miguel-Hidalgo et al., Brain Res 2002
[2] = tested on: APP/PS1 double mutant mice; settings: transgenic mouse with mutant amyloid precursor protein and presenilin I; Tanila et al., J Neurochem 2003
[3] = tested on: tau hyperphosphorylation; settings: in culture; okadaic acid-induced changes; Iqbal et al., J Neurochem 2003

CC12CC3CC(C)(C1)CC(N)(C3)C2 [memantine, 1-amino-3,5-dimethyladamantine]
protection from intrahippocampal injection of Aβ [1]: offer protection
performance on behavioral tests (T-maze and Morris water maze) [2]: improved performance
tau hyperphosphorylation [3]: reduce tau hyperphosphorylation
